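In this assay, cells in 96-well plates receive the compound at five concentrations for 48 hours. Endpoints are linearly interpolated between the surrounding concentrations. GI50 is the concentration that inhibits growth by half.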 Activity calls are given as the source filed them. Cut-off read from the data, not from the text of the source: active = GI50 up to about 1.1 µM and inactive = higher.
Experiments:
Experiment in all cases: growth of human tumour cells (NCI), 48 h
HCT-116 = system: HCT-116
HT-29 = system: HT-29
SK-MEL-2 = system: SK-MEL-2
OVCAR-5 = system: OVCAR-5
OVCAR-4 = system: OVCAR-4
EKVX = system: EKVX
CCRF-CEM = system: CCRF-CEM
CAKI-1 = system: CAKI-1
MOLT-4 = system: MOLT-4
UACC-62 = system: UACC-62
SNB-19 = system: SNB-19
COLO 205 = system: COLO 205
OVCAR-8 = system: OVCAR-8
M14 = system: M14
HCC 2998 = system: HCC 2998
SK-OV-3 = system: SK-OV-3
SF-539 = system: SF-539

Measured: GI50

COCCOCOC(C)(C)[C@H](CCOC(C)=O)O[Si](c1ccccc1)(c1ccccc1)C(C)(C)C
inactive: HCT-116 5.93 µM | HT-29 12.9 µM | SK-MEL-2 18.6 µM | OVCAR-5 16.8 µM | OVCAR-4 15 µM | EKVX 27.2 µM | CCRF-CEM 4.97 µM | CAKI-1 26.2 µM | MOLT-4 3.75 µM | UACC-62 15.7 µM | SNB-19 49 µM | COLO 205 3.44 µM | OVCAR-8 11.9 µM | M14 14.1 µM | HCC 2998 9.1 µM | SK-OV-3 35.4 µM

Cc1ccc(-n2nc(C(OC3OC(CO)C(O)C(O)C3O)C(O)CO)c3nc4cc(C)c(C)cc4nc32)cc1 (configuration not stated)
inactive: HCT-116 > 100 µM | HT-29 > 100 µM | OVCAR-5 > 100 µM | OVCAR-4 99.1 µM | EKVX > 100 µM | CCRF-CEM > 100 µM | MOLT-4 > 100 µM | SF-539 > 100 µM | UACC-62 > 100 µM | SNB-19 > 100 µM | OVCAR-8 > 100 µM | M14 > 100 µM | HCC 2998 > 100 µM | SK-OV-3 > 100 µM

NC(=O)Cn1c(=O)[nH]c(=O)c2[nH]cnc21
inactive: HCT-116 > 100 µM | HT-29 > 100 µM | SK-MEL-2 > 100 µM | OVCAR-5 > 100 µM | EKVX > 100 µM | CCRF-CEM > 100 µM | MOLT-4 > 100 µM | SF-539 > 100 µM | UACC-62 > 100 µM | SNB-19 > 100 µM | COLO 205 > 100 µM | OVCAR-8 > 100 µM | M14 > 100 µM | HCC 2998 > 100 µM | SK-OV-3 > 100 µM

N#CC(/C(CCC(=O)Nc1ccc(Cl)cc1)=N/NC(=O)c1cc2ccccc2cc1O)c1ccccc1 (configuration not stated)
inactive: HCT-116 31.3 µM | HT-29 45.9 µM | SK-MEL-2 19.7 µM | OVCAR-5 22.8 µM | OVCAR-4 51.9 µM | EKVX 34.4 µM | CCRF-CEM 10.2 µM | MOLT-4 22.2 µM | UACC-62 25.1 µM | SNB-19 47.9 µM | COLO 205 40.3 µM | OVCAR-8 32.2 µM | M14 32.6 µM | HCC 2998 52.2 µM

O=C(NCCCCCCNC(=O)OCCSCCn1cc(C(=O)NC(=O)OCc2ccccc2)c(=O)[nH]c1=O)OCCSCCn1cc(C(=O)NC(=O)OCc2ccccc2)c(=O)[nH]c1=O
inactive: HT-29 > 100 µM | SK-MEL-2 > 100 µM | OVCAR-5 > 100 µM | OVCAR-4 > 100 µM | EKVX > 100 µM | CCRF-CEM > 100 µM | CAKI-1 > 100 µM | MOLT-4 > 100 µM | UACC-62 > 100 µM | SNB-19 > 100 µM | COLO 205 > 100 µM | OVCAR-8 > 100 µM | M14 > 100 µM | HCC 2998 > 100 µM

N#CC(C#N)=C1NC(=O)C(c2ccccc2)C(=O)N1 (configuration not stated)
inactive: HCT-116 > 100 µM | HT-29 > 100 µM | OVCAR-5 > 100 µM | OVCAR-4 > 100 µM | EKVX > 100 µM | CCRF-CEM > 100 µM | CAKI-1 > 100 µM | MOLT-4 > 100 µM | SF-539 > 100 µM | UACC-62 > 100 µM | SNB-19 > 100 µM | COLO 205 > 100 µM | OVCAR-8 > 100 µM | M14 > 100 µM | HCC 2998 > 100 µM | SK-OV-3 > 100 µM

Cc1cccc(NC(=O)/C(=N\N)C(c2cnc3ccc([N+](=O)[O-])cc3n2)[N+](=O)[O-])c1C (configuration not stated)
inactive: HCT-116 > 100 µM | HT-29 > 100 µM | SK-MEL-2 > 100 µM | OVCAR-4 > 100 µM | EKVX > 100 µM | CCRF-CEM > 100 µM | CAKI-1 > 100 µM | MOLT-4 > 100 µM | SF-539 > 100 µM | UACC-62 66.2 µM | SNB-19 > 100 µM | COLO 205 > 100 µM | OVCAR-8 > 100 µM | M14 > 100 µM | HCC 2998 > 100 µM | SK-OV-3 > 100 µM

O=C1NCC2=C1CCC1c3ccccc3CCN21 (configuration not stated)
inactive: HCT-116 > 100 µM | HT-29 > 100 µM | SK-MEL-2 > 100 µM | OVCAR-5 > 100 µM | EKVX > 100 µM | CCRF-CEM > 100 µM | CAKI-1 > 100 µM | MOLT-4 > 100 µM | SF-539 > 100 µM | UACC-62 > 100 µM | SNB-19 > 100 µM | COLO 205 > 100 µM | OVCAR-8 > 100 µM | HCC 2998 > 100 µM | SK-OV-3 > 100 µM

C[C@]12CCC(=O)C=C1CC[C@@H]1[C@@H]2C(=O)C[C@@]2(C)[C@H]1CC[C@]2(O)C(=O)CO [CORTISONE]
inactive: HCT-116 > 100 µM | HT-29 > 100 µM | SK-MEL-2 > 100 µM | OVCAR-4 > 100 µM | EKVX > 100 µM | CCRF-CEM > 100 µM | CAKI-1 > 100 µM | MOLT-4 > 100 µM | SF-539 > 100 µM | SNB-19 > 100 µM | COLO 205 > 100 µM | OVCAR-8 > 100 µM | M14 > 100 µM | HCC 2998 > 100 µM | SK-OV-3 > 100 µM

O=C(O)CCC(=O)Oc1ccc(O)c2c1CCCC2=O
inactive: HCT-116 > 100 µM | HT-29 > 100 µM | SK-MEL-2 > 100 µM | OVCAR-5 > 100 µM | OVCAR-4 > 100 µM | EKVX 58.5 µM | CCRF-CEM > 100 µM | MOLT-4 > 100 µM | SF-539 > 100 µM | UACC-62 69.7 µM | SNB-19 > 100 µM | COLO 205 > 100 µM | OVCAR-8 > 100 µM | M14 > 100 µM | HCC 2998 > 100 µM | SK-OV-3 > 100 µM

CCOC(=O)C(C)NC(=O)NC12CC3CC(CC(F)(C3)C1)C2 (configuration not stated)
inactive: HCT-116 > 100 µM | HT-29 > 100 µM | SK-MEL-2 > 100 µM | OVCAR-5 > 100 µM | EKVX > 100 µM | CCRF-CEM 76.7 µM | MOLT-4 62.1 µM | SF-539 > 100 µM | UACC-62 > 100 µM | SNB-19 > 100 µM | COLO 205 41.7 µM | OVCAR-8 > 100 µM | M14 63.8 µM | HCC 2998 31.8 µM | SK-OV-3 > 100 µM

CC1(C)OCC([C@H]2CC23SCCCS3)O1 (some centres not stated)
inactive: HCT-116 > 100 µM | HT-29 > 100 µM | SK-MEL-2 > 100 µM | OVCAR-5 > 100 µM | OVCAR-4 > 100 µM | EKVX > 100 µM | CAKI-1 > 100 µM | MOLT-4 > 100 µM | SF-539 > 100 µM | UACC-62 > 100 µM | SNB-19 > 100 µM | COLO 205 > 100 µM | OVCAR-8 > 100 µM | M14 > 100 µM | SK-OV-3 > 100 µM

C[C@H]1CC[P+](Cc2ccccc2)(c2ccccc2)C1 (some centres not stated)
inactive: HCT-116 > 100 µM | HT-29 73.6 µM | SK-MEL-2 > 100 µM | OVCAR-5 > 100 µM | OVCAR-4 > 100 µM | EKVX 73.3 µM | CCRF-CEM > 100 µM | MOLT-4 > 100 µM | SF-539 > 100 µM | UACC-62 76.6 µM | SNB-19 > 100 µM | COLO 205 38 µM | OVCAR-8 > 100 µM | M14 > 100 µM | HCC 2998 67.6 µM | SK-OV-3 > 100 µM

From ChEMBL document CHEMBL1201862, “PubChem BioAssay data set” (2004)
